Data taken from ChEMBL document CHEMBL1201862, “PubChem BioAssay data set” (2004).
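Protocol summary: plate cells (96-well), add compound at 5 concentrations, incubate 48 h, interpolate endpoints linearly. The concentration for 50% growth inhibition is given as GI50.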 Activity calls are given as the source filed them. Cut-off read from the data, not from the text of the source: active = GI50 up to about 1.1 µM and inactive = higher.

What was measured:
Experiment in all cases: growth of human tumour cells (NCI), 48 h
[1] = test system: HCT-15
[2] = test system: HCT-116
[3] = test system: SK-OV-3
[4] = test system: SN12C
[5] = test system: DU-145
[6] = test system: NCI-H460
[7] = test system: NCI/ADR-RES
[8] = test system: CCRF-CEM
[9] = test system: SK-MEL-28
[10] = test system: SW-620
[11] = test system: NCI-H23
[12] = test system: U-251
[13] = test system: PC-3
[14] = test system: Hs-578T
[15] = test system: 786-0
[16] = test system: ACHN
[17] = test system: MDA-N
[18] = test system: SF-268
[19] = test system: MDA-MB-435
[20] = test system: MOLT-4
[21] = test system: TK-10
[22] = test system: SNB-19
[23] = test system: A498
[24] = test system: IGROV-1
[25] = test system: RXF 393
[26] = test system: M14
[27] = test system: HCC 2998
[28] = test system: KM12
[29] = test system: SF-295
[30] = test system: UO-31
[31] = test system: UACC-62
[32] = test system: A549
[33] = test system: OVCAR-5
[34] = test system: OVCAR-8
[35] = test system: T47D
[36] = test system: HOP-92
[37] = test system: OVCAR-3
[38] = test system: SK-MEL-2
[39] = test system: EKVX
[40] = test system: HT-29
[41] = test system: MCF7
[42] = test system: HOP-62
[43] = test system: MDA-MB-231
[44] = test system: SF-539
[45] = test system: NCI-H226
[46] = test system: SK-MEL-5
[47] = test system: Malme-3M
[48] = test system: K562
[49] = test system: BT-549
[50] = test system: CAKI-1
[51] = test system: SNB-75
[52] = test system: UACC-257
[53] = test system: OVCAR-4
[54] = test system: NCI-H522
[55] = test system: COLO 205
[56] = test system: RPMI-8226
[57] = test system: LOX IMVI
[58] = test system: HL-60

CCOC(=O)Cn1c(C)nc2nn(Cc3ccccc3)cc2c1=O
GI50 [1]: > 100 µM
GI50 [2]: > 100 µM (inactive)
GI50 [3]: > 100 µM (inactive)
GI50 [4]: > 100 µM (inactive)
GI50 [5]: > 100 µM (inactive)
GI50 [6]: > 100 µM (inactive)
GI50 [7]: > 100 µM (inactive)
GI50 [8]: > 100 µM (inactive)
GI50 [9]: > 100 µM (inactive)
GI50 [10]: > 100 µM (inactive)
GI50 [11]: > 100 µM (inactive)
GI50 [12]: > 100 µM (inactive)
GI50 [13]: > 100 µM (inactive)
GI50 [14]: > 100 µM (inactive)
GI50 [15]: > 100 µM (inactive)
GI50 [16]: > 100 µM (inactive)
GI50 [17]: > 100 µM (inactive)
GI50 [18]: > 100 µM (inactive)
GI50 [19]: > 100 µM (inactive)
GI50 [20]: > 100 µM (inactive)
GI50 [21]: > 100 µM (inactive)
GI50 [22]: > 100 µM (inactive)
GI50 [23]: > 100 µM (inactive)
GI50 [24]: > 100 µM (inactive)
GI50 [25]: > 100 µM (inactive)
GI50 [26]: > 100 µM (inactive)
GI50 [27]: > 100 µM (inactive)
GI50 [28]: > 100 µM (inactive)
GI50 [29]: > 100 µM (inactive)
GI50 [30]: > 100 µM (inactive)
GI50 [31]: > 100 µM (inactive)
GI50 [32]: > 100 µM (inactive)
GI50 [33]: > 100 µM (inactive)
GI50 [34]: > 100 µM (inactive)
GI50 [35]: > 100 µM (inactive)
GI50 [36]: > 100 µM (inactive)
GI50 [37]: > 100 µM (inactive)
GI50 [38]: > 100 µM (inactive)
GI50 [39]: > 100 µM (inactive)
GI50 [40]: > 100 µM (inactive)
GI50 [41]: > 100 µM (inactive)
GI50 [42]: > 100 µM (inactive)
GI50 [43]: > 100 µM (inactive)
GI50 [44]: > 100 µM (inactive)
GI50 [45]: > 100 µM (inactive)
GI50 [46]: > 100 µM (inactive)
GI50 [47]: > 100 µM (inactive)
GI50 [48]: > 100 µM (inactive)
GI50 [49]: > 100 µM (inactive)

c1ccc(-c2cc(-c3cc(-c4ccccc4)n(-c4ccccc4)n3)nn2-c2ccccc2)cc1
GI50 [1]: > 100 µM
GI50 [2]: > 100 µM (inactive)
GI50 [3]: > 100 µM (inactive)
GI50 [4]: > 100 µM (inactive)
GI50 [5]: > 100 µM (inactive)
GI50 [6]: > 100 µM (inactive)
GI50 [7]: > 100 µM (inactive)
GI50 [8]: > 100 µM (inactive)
GI50 [11]: > 100 µM (inactive)
GI50 [12]: > 100 µM (inactive)
GI50 [13]: > 100 µM (inactive)
GI50 [14]: 52 µM (inactive)
GI50 [15]: 78.5 µM (inactive)
GI50 [16]: > 100 µM (inactive)
GI50 [50]: > 100 µM (inactive)
GI50 [17]: > 100 µM (inactive)
GI50 [51]: 56.9 µM (inactive)
GI50 [18]: > 100 µM (inactive)
GI50 [19]: > 100 µM (inactive)
GI50 [20]: > 100 µM (inactive)
GI50 [21]: > 100 µM (inactive)
GI50 [22]: > 100 µM (inactive)
GI50 [23]: > 100 µM (inactive)
GI50 [24]: > 100 µM (inactive)
GI50 [25]: > 100 µM (inactive)
GI50 [26]: > 100 µM (inactive)
GI50 [52]: > 100 µM (inactive)
GI50 [27]: > 100 µM (inactive)
GI50 [28]: > 100 µM (inactive)
GI50 [29]: > 100 µM (inactive)
GI50 [30]: > 100 µM (inactive)
GI50 [31]: > 100 µM (inactive)
GI50 [32]: > 100 µM (inactive)
GI50 [33]: > 100 µM (inactive)
GI50 [34]: > 100 µM (inactive)
GI50 [35]: > 100 µM (inactive)
GI50 [37]: > 100 µM (inactive)
GI50 [38]: > 100 µM (inactive)
GI50 [53]: 94.8 µM (inactive)
GI50 [39]: > 100 µM (inactive)
GI50 [40]: > 100 µM (inactive)
GI50 [41]: > 100 µM (inactive)
GI50 [54]: > 100 µM (inactive)
GI50 [42]: 35.7 µM (inactive)
GI50 [55]: > 100 µM (inactive)
GI50 [43]: > 100 µM (inactive)
GI50 [44]: > 100 µM (inactive)
GI50 [45]: > 100 µM (inactive)
GI50 [46]: > 100 µM (inactive)
GI50 [47]: > 100 µM (inactive)
GI50 [48]: > 100 µM (inactive)
GI50 [49]: > 100 µM (inactive)

CC(C)=CCC/C(C)=C/CC/C(C)=C/CSc1ccc(Cl)cc1C(=O)O
GI50 [1]: 20.4 µM
GI50 [2]: 17.8 µM (inactive)
GI50 [3]: 17.3 µM (inactive)
GI50 [4]: 26.3 µM (inactive)
GI50 [5]: 23.9 µM (inactive)
GI50 [6]: 18.7 µM (inactive)
GI50 [7]: > 10 µM (inactive)
GI50 [8]: 21.2 µM (inactive)
GI50 [9]: 17.3 µM (inactive)
GI50 [10]: 22 µM (inactive)
GI50 [11]: 17.7 µM (inactive)
GI50 [12]: 17.5 µM (inactive)
GI50 [13]: 16.2 µM (inactive)
GI50 [14]: 23.2 µM (inactive)
GI50 [15]: 17.1 µM (inactive)
GI50 [16]: 18.5 µM (inactive)
GI50 [56]: 22.6 µM (inactive)
GI50 [50]: 25.1 µM (inactive)
GI50 [17]: 29.4 µM (inactive)
GI50 [51]: 18.7 µM (inactive)
GI50 [18]: 17.9 µM (inactive)
GI50 [19]: 20.2 µM (inactive)
GI50 [20]: 23.1 µM (inactive)
GI50 [21]: 19.2 µM (inactive)
GI50 [22]: 18.4 µM (inactive)
GI50 [57]: 18.1 µM (inactive)
GI50 [23]: 19.8 µM (inactive)
GI50 [24]: 17.5 µM (inactive)
GI50 [25]: 24.3 µM (inactive)
GI50 [26]: 19.6 µM (inactive)
GI50 [52]: 27.8 µM (inactive)
GI50 [27]: 20.5 µM (inactive)
GI50 [28]: 17 µM (inactive)
GI50 [29]: 17.4 µM (inactive)
GI50 [30]: 17.5 µM (inactive)
GI50 [31]: 17.9 µM (inactive)
GI50 [32]: 16.5 µM (inactive)
GI50 [33]: 18.9 µM (inactive)
GI50 [34]: 20 µM (inactive)
GI50 [35]: > 10 µM (inactive)
GI50 [36]: 22.2 µM (inactive)
GI50 [37]: 17 µM (inactive)
GI50 [38]: 15 µM (inactive)
GI50 [53]: 27.7 µM (inactive)
GI50 [39]: 18.6 µM (inactive)
GI50 [40]: 21.1 µM (inactive)
GI50 [41]: 17.3 µM (inactive)
GI50 [42]: 14.9 µM (inactive)
GI50 [55]: 22.4 µM (inactive)
GI50 [43]: 27 µM (inactive)
GI50 [58]: 22.2 µM (inactive)
GI50 [44]: 18.9 µM (inactive)
GI50 [45]: 17.4 µM (inactive)
GI50 [46]: 23.4 µM (inactive)
GI50 [47]: 19.2 µM (inactive)
GI50 [48]: 25.5 µM (inactive)
GI50 [49]: 20.2 µM (inactive)
